From ChEMBL document CHEMBL3102819, “Morpholylureas are a new class of potent and selective inhibitors of the type 5 17-β-hydroxysteroid dehydrogenase (AKR1C3)” (Bioorg Med Chem, 2014)
Numbering of substitutions follows the chain as printed.

Columns and labels:
[1] = target: T1, Aldo-keto reductase family 1 member C4 (Homo sapiens, UniProt P17516); test: Inhibition of recombinant AKR1C4 (unknown origin) after 1 hr by competitive fluorescence assay
T1 sequence (P17516 whole entry): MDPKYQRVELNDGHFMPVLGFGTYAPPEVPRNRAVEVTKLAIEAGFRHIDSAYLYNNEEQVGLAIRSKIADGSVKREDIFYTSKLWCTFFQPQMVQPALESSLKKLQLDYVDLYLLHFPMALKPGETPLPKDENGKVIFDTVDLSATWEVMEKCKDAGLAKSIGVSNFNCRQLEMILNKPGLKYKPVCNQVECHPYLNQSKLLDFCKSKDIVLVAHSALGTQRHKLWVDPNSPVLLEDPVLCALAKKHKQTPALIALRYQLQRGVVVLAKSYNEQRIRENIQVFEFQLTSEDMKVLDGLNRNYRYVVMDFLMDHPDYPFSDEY

[2] = target: T2, Aldo-keto reductase family 1 member C1 (Homo sapiens, UniProt Q04828); test: Inhibition of recombinant AKR1C1 (unknown origin) after 1 hr by competitive fluorescence assay
T2 sequence (Q04828 whole entry): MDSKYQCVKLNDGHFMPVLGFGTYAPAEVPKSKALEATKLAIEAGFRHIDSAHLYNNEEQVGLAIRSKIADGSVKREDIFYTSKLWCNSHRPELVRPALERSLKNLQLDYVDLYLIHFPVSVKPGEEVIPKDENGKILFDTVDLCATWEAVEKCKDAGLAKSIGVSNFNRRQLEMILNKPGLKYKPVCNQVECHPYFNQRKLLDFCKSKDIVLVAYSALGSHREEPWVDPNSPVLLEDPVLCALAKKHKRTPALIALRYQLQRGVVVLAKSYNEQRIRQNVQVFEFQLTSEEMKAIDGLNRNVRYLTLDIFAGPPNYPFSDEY

[3] = target: T3, Aldo-keto reductase family 1 member C2 (Homo sapiens, UniProt P52895); test: Inhibition of recombinant AKR1C2 (unknown origin) after 1 hr by competitive fluorescence assay
T3 sequence (P52895 whole entry): T2 sequence (Q04828 whole entry) with T38V, R47H, L54V, C87S, V151M, R170H, Q172L

[4] = target: T4, Aldo-keto reductase family 1 member C3 (Homo sapiens, UniProt P42330); test: Inhibition of recombinant AKR1C3 (unknown origin) after 1 hr by competitive fluorescence assay
T4 sequence (P42330 whole entry): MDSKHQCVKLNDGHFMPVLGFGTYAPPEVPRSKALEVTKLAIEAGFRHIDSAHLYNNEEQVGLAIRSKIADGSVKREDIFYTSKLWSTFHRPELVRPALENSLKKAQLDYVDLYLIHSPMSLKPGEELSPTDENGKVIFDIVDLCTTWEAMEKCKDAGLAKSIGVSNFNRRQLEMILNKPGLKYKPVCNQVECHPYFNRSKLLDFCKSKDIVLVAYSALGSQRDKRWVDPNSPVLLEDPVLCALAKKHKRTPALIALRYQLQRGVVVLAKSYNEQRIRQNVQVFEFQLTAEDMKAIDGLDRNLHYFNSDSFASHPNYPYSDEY

[5] = target: T4, Aldo-keto reductase family 1 member C3; test: Inhibition of AKR1C3 (unknown origin) expressed in human HCT116 cells assessed as formation of PR-104H from PR-104A preincubated for 2 hrs; format: cell-based, HCT-116

Structure (SMILES) | IC50 [1] [µM] | IC50 [2] [µM] | IC50 [3] [µM] | IC50 [4] [µM] | IC50 [5] [nM]
O=C(NC1CCCCC1)N1CCN(c2ccc(Cl)cc2)CC1 |  |  |  | > 30 | 
O=C(N1CCCCC1)N1CCN(c2ccc(Cl)cc2)CC1 | > 30 | > 30 | > 30 | 3.8 | 
O=C(c1ccccc1)N1CCN(c2ccc(Cl)cc2)CC1 |  |  |  | > 30 | 
CS(=O)(=O)Nc1ccc(N2CCN(C(=O)N3CCOCC3)CC2)cc1 |  |  |  | > 30 | 
CN1CCN(C(=O)N2CCN(c3ccc(Cl)cc3)CC2)CC1 |  |  |  | > 30 | 
O=C(N1CCN(CCO)CC1)N1CCN(c2ccc(Cl)cc2)CC1 |  |  |  | > 30 | 
O=C(O)C1CCN(C(=O)N2CCN(c3ccc(Cl)cc3)CC2)CC1 |  |  |  | 21.9 | 
O=C(CO)N1CCN(C(=O)N2CCN(c3ccc(Cl)cc3)CC2)CC1 | > 30 | > 30 | > 30 | 0.46 | 59
O=C(N1CCN(c2ccc(Cl)cc2)CC1)N1CCc2ccccc2C1 | > 30 | > 30 | > 30 | 0.35 | 390
O=S(=O)(N1CCOCC1)N1CCN(c2ccc(Cl)cc2)CC1 |  |  |  | > 30 | 
S=C(N1CCOCC1)N1CCN(c2ccc(Cl)cc2)CC1 |  |  |  | > 30 | 
O=C(N1CCOCC1)N1CCCN(c2ccc(Cl)cc2)CC1 |  |  |  | 30 | 
O=C(N1CCOCC1)N1CC2CC1CN2c1ccc(Cl)cc1 (stereo not given) | > 30 | > 30 | > 30 | 3.7 | 
CC(=O)Nc1ccc(N2CCN(C(=O)N3CCOCC3)CC2)cc1 |  |  |  | > 30 | 
O=C(N1CCOCC1)N1CCN(Cc2ccc(Cl)cc2)CC1 | > 30 | > 30 | > 30 | 0.35 | 
O=C(c1ccc(Cl)cc1)N1CCN(C(=O)N2CCOCC2)CC1 | > 30 | > 30 | > 30 | 0.48 | 

Structure (SMILES) | IC50 [1] [µM] | IC50 [2] [µM] | IC50 [3] [µM] | IC50 [4] [µM] | IC50 [5] [nM]
O=C(C1CCOCC1)N1CCN(c2ccc(Cl)cc2)CC1 |  |  |  | > 30 | 
O=C(C1CCCCC1)N1CCN(c2ccc(Cl)cc2)CC1 |  |  |  | > 30 | 
O=C(Nc1ccccc1)N1CCN(c2ccc(Cl)cc2)CC1 |  |  |  | > 30 | 
O=C(c1ccncc1)N1CCN(c2ccc(Cl)cc2)CC1 |  |  |  | 12.6 | 
O=C(N1CCSCC1)N1CCN(c2ccc(Cl)cc2)CC1 | > 30 | > 30 | > 30 | 9.1 | 
O=C(N1CCN(c2ccc(Cl)cc2)CC1)N1CC[S+]([O-])CC1 |  |  |  | > 30 | 
O=C(N1CCN(c2ccc(Cl)cc2)CC1)N1CCS(=O)(=O)CC1 |  |  |  | > 30 | 
O=C(N1CCOCC1)N1CCN(c2ccc(C(F)(F)F)cc2)CC1 | > 30 | > 30 | > 30 | 0.068 | 22
O=C(N1CCOCC1)N1CCN(c2ccc(Cl)cc2)CC1 | > 30 | > 30 | > 30 | 0.11 | 18
COC(=O)c1ccc(N2CCN(C(=O)N3CCOCC3)CC2)cc1 | > 30 | > 30 | > 30 | > 30 | 
CNC(=O)c1ccc(N2CCN(C(=O)N3CCOCC3)CC2)cc1 |  |  |  | > 30 | 
CN(C)C(=O)c1ccc(N2CCN(C(=O)N3CCOCC3)CC2)cc1 |  |  |  | > 30 | 
CS(=O)(=O)c1ccc(N2CCN(C(=O)N3CCOCC3)CC2)cc1 | > 30 | > 30 | > 30 | 5.52 | 
O=C(N1CCOCC1)N1CCN(c2ccc(-c3ccccc3)cc2)CC1 |  |  |  | > 30 | 
O=C(N1CCOCC1)N1CCN(c2ccc3ccccc3c2)CC1 | > 30 | > 30 | > 30 | 4.9 | 

Other lines, results leading:

IC50 [1] [µM] | IC50 [2] [µM] | IC50 [3] [µM] | IC50 [4] [µM] | IC50 [5] [nM] | Structure (SMILES)
> 30 | > 30 | > 30 | 0.5 |  | O=C(N1CCOCC1)N1CCN(c2ccc(F)cc2)CC1
> 30 | > 30 | > 30 | 6.1 |  | O=C(N1CCOCC1)N1CCN(c2ccccc2)CC1
 |  |  | 20.3 |  | COc1ccccc1N1CCN(C(=O)N2CCOCC2)CC1
> 30 | > 30 | > 30 | 0.025 | 3 | O=C(N1CCOCC1)N1CCN(c2ccc(Cl)cc2Cl)CC1
> 30 | > 30 | > 30 | 0.11 | 13 | Cc1cc(Cl)ccc1N1CCN(C(=O)N2CCOCC2)CC1
> 30 | > 30 | > 30 | 0.16 | 13 | O=C(N1CCOCC1)N1CCN(c2ccc(Cl)cc2CO)CC1
> 30 | > 30 | > 30 | 0.53 |  | O=C(N1CCOCC1)N1CCN(c2ccc(Cl)nc2)CC1
> 30 | > 30 | > 30 | 0.1 | 31 | O=C(N1CCOCC1)N1CCN(c2ccc(Br)cn2)CC1
> 30 | > 30 | > 30 | 2.9 |  | O=C(N1CCOCC1)N1CCN(c2cnc3ccccc3c2)CC1
> 30 | > 30 | > 30 | 0.66 |  | C#Cc1ccc(N2CCN(C(=O)N3CCOCC3)CC2)cc1
> 30 | > 30 | > 30 | 0.14 | 12 | O=C(N1CCOCC1)N1CCN(c2ccc(Br)cc2)CC1
> 30 | > 30 | > 30 | 0.067 | 10 | O=C(N1CCOCC1)N1CCN(c2ccc(I)cc2)CC1
 |  |  | > 30 |  | O=C(O)c1ccc(N2CCN(C(=O)N3CCOCC3)CC2)cc1
 |  |  | > 30 |  | NC(=O)c1ccc(N2CCN(C(=O)N3CCOCC3)CC2)cc1
> 30 | > 30 | > 30 | 0.57 |  | O=C(N1CCOCC1)N1CCN(c2ccc([N+](=O)[O-])cc2)CC1
 |  |  | 12.1 |  | Cc1ccccc1N1CCN(C(=O)N2CCOCC2)CC1
> 30 | > 30 | > 30 | 2.3 |  | O=C(N1CCOCC1)N1CCN(c2ccccc2Cl)CC1
> 30 | > 30 | > 30 | 0.7 |  | O=C(N1CCOCC1)N1CCN(c2ccccc2C(F)(F)F)CC1
> 30 | > 30 | > 30 | 5.3 |  | O=C(N1CCOCC1)N1CCN(c2cccc(Cl)c2)CC1
 |  |  | > 30 |  | NC(=O)c1cccc(N2CCN(C(=O)N3CCOCC3)CC2)c1
> 30 | > 30 | > 30 | 0.36 |  | Cc1ccc(N2CCN(C(=O)N3CCOCC3)CC2)cc1
> 30 | > 30 | > 30 | 0.35 |  | COc1ccc(N2CCN(C(=O)N3CCOCC3)CC2)cc1
